IC50 data for 1 compound are collected here from patent US7449495B2, “Retinoid derivatives with antiangiogenic, antitumoral and proapoptotic activities” (Sigma-Tau Industrie Farmaceutiche Riunite S.p.A., priority 2001, dated 2008).

pIC50: −log10 of the molar value. Where two headings read alike, the source gives them in different places.

Assay [1] relates to NB4 acute promyelocytic leukaemia cell line. Put plainly: Cytotoxicity test (sulphorodamine B), NB4. Format: cell-based, human. The following applies: 24 h incubation, survival 48 h after removal, read-out: IC50. The text has this: To carry out the cytotoxicity tests, two acute promyelocytic leukaemia (APL) cell lines were used. • 1. Cell line NB4, carrying the chromosomal translocation t(15; 17) which generates the fusion protein PML/RARα. This cell line is extremely sensitive to the differentiating action of pharmaceutical doses of ATRA (10^−7-10^−6 M); • 2. Cell line HL60, which responds to ATRA less sensitively with respect to cell line NB4.
These cell lines were maintained in RPMI 1640 containing 10% foetal calf serum (FCS) and 1% glutamine.
The cytotoxicity tests were carried out using NB4 or HL-60 cells in suspension (10000/well). The cells were seeded in a volume of 250 μl in 96 well plates and incubated for 24 hours at 37° C. The following day, test compound ST 1926 [(2E)-3-[3′-(1-Adamantyl)-4′-hydroxy[1,1′-biphenyl]-4-yl]-2-propenoate/ic acid] was added at increasing concentrations, and the cells were incubated for a further 24 hours at 37° C. in a humidified atmosphere containing 5% CO2. On the 3rd day, the medium was removed by centrifuging the plate at 1600×g for 10 min and the supernatant decanted. 250 μl of PBS were added; then the plates were centrifuged again at 1600×g for 10 minutes and the supernatant decanted. 200 μl/well of RPMI 1640 medium containing 10% FCS were added and the plates were incubated at 37° C. for a further 48 hours. On the 5th day, the plates were again centrifuged at 1600×g for 10 minutes, and the medium was removed by upturning the plates, 200 μl of PBS and 50 μl of cold, 80% TCA were added. The plates were then left to incubate on ice for at least 1 hour. The TCA was removed by upturning; the plates were washed three times by immersion in distilled water and dried first on paper, then with a jet of hot air. To all wells were added 200 μl of 0.4% sulphorodamine B in 1% acetic acid. The plates were incubated at room temperature for a further 30 minutes. […] The optical density was measured using a Multiskan spectrophotometer at 540 nm.
(§1) Cell survival was determined by incubation with ST1926 for 24 hours, 48 hours after the removal of the compound. […]

The test system of assay [2] is no small cell lung carcinoma NCI-H460. Briefly: Cytotoxicity test (sulphorodamine B), NCI-H460. The class given is cell-based. The following applies: Homo sapiens, 24 h incubation, survival 48 h after removal.
Text: Different cell lines deriving from solid tumors were also used. • 1. Human prostate carcinoma PC3 and DU145. These cell lines were maintained in RPMI 1640 medium containing 10% FCS, 1% sodium pyruvate and 1% glutamine; • 2. Human colon adenocarcinoma LoVo. This cell line was maintained in HAM's F-12 medium, containing 10% FCS and 1% glutamine. • 3. Human ovarian carcinoma such as A2780 and A2780/Dx, sensitive and resistant to drugs, respectively (doxorubicin, taxol, etoposide, vincristine); IGROV-1 and IGROV-1/Pt, sensitive and resistant to platinum-based chemotherapy, respectively, were maintained in RPMI 1640 medium containing 10% FCS, 1% sodium pyruvate and 1% glutamine; • 4. Human melanoma MeWo and MeS 2.21, glioblastoma GBM, no small cell lung carcinomas A431, NCI—H460, osteosarcomas SAOS and U2OS were maintained in RPMI 1640 medium containing 10% FCS, 1% sodium pyruvate and 1% glutamine.
The cytotoxicity tests were carried out using NB4 or HL-60 cells in suspension (10000/well). The cells were seeded in a volume of 250 μl in 96 well plates and incubated for 24 hours at 37° C. […] The optical density was measured using a Multiskan spectrophotometer at 540 nm. […]
as §1

A word on the pIC50: it is the negative decadic logarithm of the IC50, by convention in mol/L. As to `O=C(O)/C=C/c1ccc(-c2ccc(O)c(C34CC5CC(CC(C5)C3)C4)c2)cc1` [ST1926, E-4-(3-(1-adamantyl)-4-hydroxyphenyl)cinnamic acid], the pIC50 in assay [1] was 7.70; in assay [1] (Homo sapiens) it was 7.66; in assay [2], 6.72.
